Molecules are shown by their SMILES. Values after ≈ are worked out from the molar mass of the structure shown.

In DBAASP one finds MIC data, which are given here for 14 compounds.

Test systems include Escherichia coli JW0013; Micrococcus luteus; Escherichia coli; Pseudomonas aeruginosa; Klebsiella pneumoniae; Staphylococcus aureus.
Assay in all cases: ≥ marks a high value that may be exact or a test limit, other limits are often not marked, values filed in µg/mL are converted to µM
Assay [1] concerns Staphylococcus aureus ATCC 6538.
The test system of assay [2] is Pseudomonas aeruginosa ATCC 9027.
In assay [3] the test system is Staphylococcus epidermidis.
The test system of assay [4] is Pseudomonas aeruginosa ATCC 27853.
The subject of assay [5] is Klebsiella pneumoniae ATCC 13883.
The test system of assay [6] is Escherichia coli ATCC 25922.
Assay [7] relates to Staphylococcus aureus ATCC 25923.
Assay [8] deals with Salmonella typhimurium KCTC 1926.
For assay [9], the system named is Staphylococcus epidermidis KCTC 1917.
Assay [10] relates to Pseudomonas aeruginosa KCTC 1637.
Assay [11] relates to Escherichia coli KCTC 1682.
Assay [12] relates to Staphylococcus aureus KCTC 1621.
The subject of assay [13] is Candida albicans ATCC 10231.
For assay [14], the system named is Bacillus subtilis ATCC 6633.

A word on the MIC: it is the lowest concentration that inhibits growth of the organism. High values mean a need for much substance, low ones inhibition by little substance. For the compound `CC[C@H](C)[C@H](NC(=O)[C@H](CCCN=C(N)N)NC(=O)[C@H](CCCN=C(N)N)NC(=O)[C@@H]1CCCN1C(=O)[C@@H]1CCCN1C(=O)[C@H](CCCN=C(N)N)NC(=O)[C@@H]1CCCN1C(=O)[C@H](CCCN=C(N)N)NC(=O)[C@@H]1CCCN1C(=O)[C@H](CC(C)C)NC(=O)[C@H](Cc1ccc(O)cc1)NC(=O)[C@@H]1CCCN1C(=O)[C@@H]1CCCN1C(=O)[C@H](CCCCN)NC(=O)[C@H](CC(=O)O)NC(=O)[C@H](C)N)C(=O)N[C@@H](Cc1ccc(O)cc1)C(=O)N[C@@H](CC(N)=O)C(=O)N[C@@H](CCCN=C(N)N)C(N)=O` [ADKPPYLPRPRPPRRIYNR], in the assay on Escherichia coli JW0013, the MIC is 2.03 µM (≈ 4.8 µg/mL).

Turning to `CC(C)C[C@H](NC(=O)[C@H](CCCCN)NC(=O)[C@H](CCCCN)NC(=O)[C@H](C)NC(=O)[C@H](CC(C)C)NC(=O)[C@H](CCCCN)NC(=O)[C@H](C)NC(=O)[C@H](CCCCN)NC(=O)[C@H](CCCCN)NC(=O)[C@H](C)NC(=O)[C@H](CC(C)C)NC(=O)[C@H](CCCCN)NC(=O)[C@H](CCCCN)NC(=O)[C@H](C)NC(=O)[C@@H](N)Cc1ccccc1)C(N)=O` [FAKKLAKKAKLAKKL], the minimum inhibitory concentration (MIC) was determined as 119 µM (≈ 200 µg/mL) in assay [1] and 59.3 µM (≈ 99.9 µg/mL) in [2].

With `CC(C)C[C@H](NC(=O)[C@H](CCCCN)NC(=O)[C@H](CC(C)C)NC(=O)[C@H](C)NC(=O)[C@H](CCCCN)NC(=O)[C@H](C)NC(=O)[C@H](CC(C)C)NC(=O)[C@H](CC(C)C)NC(=O)[C@H](CCCCN)NC(=O)[C@H](CCCCN)NC(=O)[C@H](C)NC(=O)[C@@H](N)Cc1ccccc1)C(N)=O` [FAKKLLAKALKL], the minimal inhibitory concentration (MIC) was more than 149 µM in assay [1] and 149 µM (≈ 200 µg/mL) in assay [2].

Consider `CC(C)C[C@H](NC(=O)[C@H](C)NC(=O)[C@H](CCCCN)NC(=O)[C@H](CCCCN)NC(=O)[C@H](C)NC(=O)[C@H](CCCCN)NC(=O)[C@H](CCCCN)NC(=O)[C@H](CC(C)C)NC(=O)[C@H](C)NC(=O)[C@H](CCCCN)NC(=O)[C@H](CCCCN)NC(=O)[C@H](C)NC(=O)[C@H](CC(C)C)NC(=O)[C@H](C)NC(=O)[C@@H](N)Cc1ccccc1)C(N)=O` [FALAKKALKKAKKAL], for which the MIC in assay [1] worked out at 61.4 µM (≈ 99.9 µg/mL); in assay [2], 15.3 µM (≈ 25 µg/mL).

In the case of `CC(C)C[C@H](NC(=O)[C@H](C)NC(=O)[C@H](CCCCN)NC(=O)[C@H](CCCCN)NC(=O)[C@H](CC(C)C)NC(=O)[C@H](C)NC(=O)[C@H](CCCCN)NC(=O)[C@H](CC(C)C)NC(=O)[C@H](C)NC(=O)[C@H](CC(C)C)NC(=O)[C@H](C)NC(=O)[C@@H](N)Cc1ccccc1)C(N)=O` [FALALKALKKAL], the MIC stood at 3.89 µM (≈ 5 µg/mL) in [1] and 38.9 µM (≈ 50 µg/mL) in assay [2].

In the assay on Micrococcus luteus, `CC[C@H](C)[C@H](NC(=O)CNC(=O)[C@H](CO)NC(=O)[C@H](CC(C)C)NC(=O)[C@H](C)NC(=O)[C@H](CC(=O)O)NC(=O)[C@H](CC(C)C)NC(=O)[C@H](CC(C)C)NC(=O)CN)C(=O)N[C@@H](CC(C)C)C(=O)NCC(=O)N[C@@H](CC(C)C)C(N)=O` [GLLDALSGILGL] had an MIC of 21.9 µM (≈ 25 µg/mL).

Take `CC(C)[C@H](NC(=O)CNC(=O)[C@@H](N)Cc1cnc[nH]1)C(=O)N[C@@H](CO)C(=O)NCC(=O)N[C@@H](Cc1cnc[nH]1)C(=O)NCC(=O)N[C@@H](CCC(N)=O)C(=O)N[C@@H](Cc1cnc[nH]1)C(=O)NCC(=O)N[C@H](C(=O)N[C@@H](Cc1cnc[nH]1)C(=O)NCC(=O)O)[C@@H](C)O` [HGVSGHGQHGTHG]: the MIC was 12.6 µM (≈ 16 µg/mL) in assay [3]; 6.31 µM (≈ 8 µg/mL) against Escherichia coli; 12.6 µM (≈ 16 µg/mL) against Pseudomonas aeruginosa; 6.31 µM (≈ 8 µg/mL) against Klebsiella pneumoniae; 12.6 µM (≈ 16 µg/mL) in the assay on Staphylococcus aureus; 6.31 µM (≈ 8 µg/mL) in [4]. Further, the MIC was 6.31 µM (≈ 8 µg/mL) in assay [5], 3.16 µM (≈ 4 µg/mL) in assay [6] and 6.31 µM (≈ 8 µg/mL) in [7].

For the compound `C[C@H](NC(=O)[C@H](Cc1c[nH]c2ccccc12)NC(=O)[C@H](CCCCN)NC(=O)[C@H](CCCN=C(N)N)NC(=O)CNC(=O)[C@H](Cc1c[nH]c2ccccc12)NC(=O)[C@H](CCCN=C(N)N)NC(=O)[C@H](CCCN=C(N)N)NC(=O)[C@H](Cc1c[nH]c2ccccc12)NC(=O)CNC(=O)[C@@H](N)CCCN=C(N)N)C(=O)N[C@@H](Cc1cnc[nH]1)C(=O)NCC(=O)N[C@@H](Cc1c[nH]c2ccccc12)C(=O)N[C@@H](CCCCN)C(=O)N[C@@H](CCCCN)C(=O)N[C@@H](Cc1ccc(O)cc1)C(=O)NCC(N)=O` [RGWRRWGRKWAHGWKKYG], the MIC stood at 2 µM (≈ 4.74 µg/mL) in assay [8]; 2 µM (≈ 4.74 µg/mL) in [9]; 8 µM (≈ 19 µg/mL) in [10]; 4 µM (≈ 9.48 µg/mL) in assay [11]; 4 µM (≈ 9.48 µg/mL) in assay [12].

Take `CC(C)C[C@H](NC(=O)[C@H](CCCN=C(N)N)NC(=O)[C@@H]1CCCN1C(=O)[C@@H]1CCCN1C(=O)[C@H](CCCN=C(N)N)NC(=O)[C@@H]1CCCN1C(=O)[C@H](CCCN=C(N)N)NC(=O)[C@H](CCCN=C(N)N)NC(=O)[C@H](CCCN=C(N)N)NC(=O)[C@@H](N)CCCN=C(N)N)C(=O)N1CCC[C@H]1C(=O)N[C@@H](CCCN=C(N)N)C(=O)N1CCC[C@H]1C(=O)N[C@@H](CCCN=C(N)N)C(=O)N1CCC[C@H]1C(=O)N[C@@H](CCCN=C(N)N)C(=O)O` [RRRRPRPPRLPRPRPR]: in the assay with Escherichia coli JW0013, the MIC turned out to be 0.3 µM (≈ 0.636 µg/mL).

Consider `CC(C)C[C@H](NC(=O)[C@@H]1CCCN1C(=O)[C@H](CCCCN)NC(=O)[C@@H]1CCCN1C(=O)[C@H](Cc1ccc(O)cc1)NC(=O)[C@H](CCCCN)NC(=O)[C@H](Cc1c[nH]c2ccccc12)NC(=O)[C@@H](N)CCCN=C(N)N)C(=O)N[C@@H](CCCCN)C(=O)N[C@@H](CCCN=C(N)N)C(=O)O` [RWKYPKPLKR], for which the minimum inhibitory concentration (MIC) in assay [13] is 54.7 µM (≈ 75 µg/mL); in assay [6] it was 54.7 µM (≈ 75 µg/mL); in assay [7], more than 72.9 µM; in assay [14], 27.3 µM (≈ 37.5 µg/mL).

As for `CC[C@H](C)[C@H](NC(=O)[C@H](CCCN=C(N)N)NC(=O)[C@H](CCCN=C(N)N)NC(=O)[C@@H]1CCCN1C(=O)[C@@H]1CCCN1C(=O)[C@H](CCCN=C(N)N)NC(=O)[C@@H]1CCCN1C(=O)[C@H](CCCN=C(N)N)NC(=O)[C@@H]1CCCN1C(=O)[C@H](CC(C)C)NC(=O)[C@H](Cc1ccc(O)cc1)NC(=O)[C@@H]1CCCN1C(=O)[C@H](C)NC(=O)[C@H](CCCCN)NC(=O)[C@H](CC(=O)O)NC(=O)[C@@H](N)C(C)C)C(=O)N[C@@H](Cc1ccc(O)cc1)C(=O)N[C@@H](CC(N)=O)C(=O)N[C@@H](CCCN=C(N)N)C(N)=O` [VDKAPYLPRPRPPRRIYNR], the minimal inhibitory concentration (MIC) against Escherichia coli JW0013 was determined as 1.4 µM (≈ 3.3 µg/mL).

Compound `CC[C@H](C)[C@H](NC(=O)[C@H](CCCN=C(N)N)NC(=O)[C@H](CCCN=C(N)N)NC(=O)[C@@H]1CCCN1C(=O)[C@@H]1CCCN1C(=O)[C@H](CCCN=C(N)N)NC(=O)[C@@H]1CCCN1C(=O)[C@H](CCCN=C(N)N)NC(=O)[C@@H]1CCCN1C(=O)[C@H](CC(C)C)NC(=O)[C@H](Cc1ccc(O)cc1)NC(=O)[C@@H]1CCCN1C(=O)[C@H](Cc1cnc[nH]1)NC(=O)[C@H](CCCCN)NC(=O)[C@H](CC(=O)O)NC(=O)[C@@H](N)C(C)C)C(=O)N[C@@H](Cc1ccc(O)cc1)C(=O)N[C@@H](CC(N)=O)C(=O)N[C@@H](CCCN=C(N)N)C(N)=O` [VDKHPYLPRPRPPRRIYNR] showed a minimal inhibitory concentration (MIC) against Escherichia coli JW0013 of 1.97 µM (≈ 4.8 µg/mL).

`CC[C@H](C)[C@H](NC(=O)[C@H](CCCN=C(N)N)NC(=O)[C@H](CCCN=C(N)N)NC(=O)[C@@H]1CCCN1C(=O)[C@@H]1CCCN1C(=O)[C@H](CCCN=C(N)N)NC(=O)[C@@H]1CCCN1C(=O)[C@H](CCCN=C(N)N)NC(=O)[C@@H]1CCCN1C(=O)[C@H](CC(C)C)NC(=O)[C@H](CCCN=C(N)N)NC(=O)[C@H](Cc1cnc[nH]1)NC(=O)[C@H](CCCCN)NC(=O)[C@H](CCCCN)NC(=O)[C@H](CC(=O)O)NC(=O)[C@@H](N)C(C)C)C(=O)N[C@@H](Cc1ccc(O)cc1)C(=O)N[C@@H](CC(N)=O)C(=O)N[C@@H](CCCN=C(N)N)C(N)=O` [VDKKHRLPRPRPPRRIYNR]: the MIC in the assay on Escherichia coli JW0013 came to 0.978 µM (≈ 2.4 µg/mL). This MIC is about 2-fold lower than that of the compound before.

Compound `CC[C@H](C)[C@H](NC(=O)[C@H](CCCN=C(N)N)NC(=O)[C@H](CCCN=C(N)N)NC(=O)[C@@H]1CCCN1C(=O)[C@@H]1CCCN1C(=O)[C@H](CCCN=C(N)N)NC(=O)[C@@H]1CCCN1C(=O)[C@H](Cc1cnc[nH]1)NC(=O)[C@@H]1CCCN1C(=O)[C@H](CC(C)C)NC(=O)[C@H](Cc1ccc(O)cc1)NC(=O)[C@@H]1CCCN1C(=O)[C@@H]1CCCN1C(=O)[C@H](CCCCN)NC(=O)[C@H](CC(=O)O)NC(=O)[C@@H](N)C(C)C)C(=O)N[C@@H](Cc1ccc(O)cc1)C(=O)N[C@@H](CC(N)=O)C(=O)N[C@@H](CCCN=C(N)N)C(N)=O` [VDKPPYLPHPRPPRRIYNR] returned a minimal inhibitory concentration (MIC) against Escherichia coli JW0013 of 2.02 µM (≈ 4.8 µg/mL).
